# Experimental data from patent US20060276385A1, “Anti-inflammatory agents and methods of their use” (priority 2003, published 2006).
# Residues, ends and D or L forms follow the SMILES beside them. *: point of attachment. Cbz = O=C(OCc1ccccc1)*
# What was measured:
# [1] = test system: ICAM-1; assay: ICAM-1 surface expression by FACS analysis in HAEC; format: cell-based, human; conditions: for BMP4-induced ICAM-1 expression in presence of ROS scavenger: HAEC transfected with BMP4; for effect on OS-induced ICAM-1 expression: HAEC exposed to OS 1 day, PEG-catalase or Tiron included during shear
# Procedure: (§1) Endothelial cells: Mouse aortic endothelial cells (MAEC) were cultured and used at passages 4-8 as described (Cai, H., et al. (2002) J Bio Chem 107, 48311-48317). Human aortic endothelial cells (HAEC) purchased from Clonetics were cultured using EGM-2 bullet kit (Clonetics) and used at passages 4-8. Alternatively, endothelial cells obtained from the thoracic aortas of C57/BL6 control (MAE-wt) and p47^phox-null mice (MAE-p47^−/−) were isolated and cultured as described previously (Hwang, J. et al. (2003) J Biol Chem 278:47291-8), and used between passages 4-10.
# (§2) Shear stress studies: Confluent endothelial monolayers grown in 100 mm tissue culture dishes were exposed to an arterial level of uni-directional LS (15 dyn/cm^2) in the growth medium by rotating a Teflon cone (0.5° cone angle) as described previously. To mimic unstable shear conditions in vivo, endothelial cells were exposed to OS with directional changes of flow at 1 Hz cycle (±5 dyn/cm^2) by rotating the cone back-and-forth using a stepping motor (Servo Motor) and a computer program (DC Motor Company, Atlanta, Ga.). In some studies, 5 dyn/cm^2 unidirectional LS was used for comparison to OS (±5 dyn/cm^2).
# (§3) Fluorescence activated cytometry sorting (FACS) analysis: Treated cells were dissociated into single cell suspensions using 0.25% trypsin-EDTA and resuspended in a FACS buffer (Hank's buffered solution containing 5% FBS). Aliquots of cell suspensions were incubated with ICAM-1 antibody (R&D Systems) for 20 min on ice, washed twice with FACS buffer, and incubated with secondary antibody (fluorescein-5-isothiocyanate- or phycoerytherin-conjugated, Chemicon) for 20 min on ice in the dark. Then samples were washed again, fixed in 1% paraformaldehyde and analyzed by FACS (Calibur, Becton-Dickinson) using CellQuest software. The fluorescence intensity of ICAM-1 and forward cell scattering of 30,000 cells were measured and the geometric means calculated from histograms were shown. In some studies, HAEC were transfected with either BMP4 cloned in a bi-cistronic pAdTrack CMV vector or an empty vector, both expressing green fluorescent protein (GFP), using Lipofectamine 2000. In these experiments, ICAM-1 expression was measured in the red phycoerytherin channel, while the green channel was used to monitor the […] expression-GFP expression was determined by FACS analysis and fluorescence microscopy (20-30% transfection efficiency). Because expression of GFP was similar among different treatment groups within the same experiment, it was unnecessary to normalize ICAM-1 expression data to GFP level. Human recombinant noggin was purchased from R&D Systems and used in all experiments at 50 ng/ml (Dale, L., and Jones, C. M. (1999) Bioessays 21, 751-760; Zimmerman, L. B., et al. (1996) Cell 86, 599-606; Brunei, L. J., et al. (1998) Science 280, 1455-1457).
# [2] = test system: E-selectin; assay: E-selectin surface expression by FACS analysis in HAEC; format: cell-based, human; conditions: TNF-α 100 U/ml for 2 hr as positive control
# Procedure: Fluorescence activated cytometry sorting (FACS) analysis: Treated cells were dissociated into single cell suspensions using 0.25% trypsin-EDTA and resuspended in a FACS buffer (Hank's buffered solution containing 5% FBS). Aliquots of cell suspensions were incubated with ICAM-1 antibody (R&D Systems) for 20 min on ice, washed twice with FACS buffer, and incubated with secondary antibody (fluorescein-5-isothiocyanate- or phycoerytherin-conjugated, Chemicon) for 20 min on ice in the dark. Then samples were washed again, fixed in 1% paraformaldehyde and analyzed by FACS (Calibur, Becton-Dickinson) using CellQuest software. The fluorescence intensity of ICAM-1 and forward cell scattering of 30,000 cells were measured and the geometric means calculated from histograms were shown. […] In these experiments, ICAM-1 expression was measured in the red phycoerytherin channel, while the green channel was used to monitor the […] expression-GFP expression was determined by FACS analysis and fluorescence microscopy (20-30% transfection efficiency). […]
# (§4) HAEC treated with OS, BMP4 or static condition were analyzed by FACS using antibodies specific to VCAM-1 (C) and E-selectin (D) as described in panel A using TNFa (1OOU/ml, for 2 hr) as a positive control.
# [3] = test system: MAE-p47−/− cells; assay: Monocyte adhesion to p47phox-null endothelial cells, with or without p47phox transfection; format: cell-based, mouse; conditions: MAE-p47−/− cells transfected with p47phox (rescued); BMP4 20 ng/ml or TNF-α 100 U/ml, 18 hrs
# Procedure: as §1
# (§5) Monocyte Adhesion: Monocyte binding was determined under no-flow conditions using THP-1 monocytes (ATCC) by the method described by Chappel et al (Chappell, D. C., et al. (1998) Circ Res 82, 532-539). Briefly, THP-1 cells (5×10^5 cells/ml) were labeled with a fluorescent dye 2′,7′-bis(carboxyethyl)-5(6)-carboxyfluorescein-AM (BCECF, Molecular Probes) (1 mg/ml) in serum-free RPMI medium for 45 min at 37° C. Following exposure to shear stress or BMP treatments in the presence or absence of noggin or vehicle, the endothelial cells were washed in RPMI medium before adding BCECF-loaded THP-1 cells (1:1 ratio). After a 30 min incubation at 37° C. under no-flow conditions, unbound monocytes were removed by washing the endothelial dishes 5 times with Hank's PBS. Bound monocytes were quantified by either counting the cells under a fluorescent microscope or by measuring the fluorescent intensity of cell lysates by fluorescence spectrophotometry using a plate reader. […] Some studies were performed with MAEC pretreated with 5 μg/ml of mouse-ICAM1 antibody (YN1, Southern Biolechonology) (Kevil, C. G., et al. (2001) Am J Physiol Cell Physiol 281, C1442-1447).
# Transfection of p47phox: In some studies MAE-p47^−/− cells were trasnfected withp47phox expression vector or an empty vector as described (Hwang, J. et al. (2003) J Biol Chem278-47291-8).
# Next, monocyte adhesion was determined in these cells. […] After 18 hrs, cells were washed and monocyte binding was determined as described in FIG. 7. […]
# [4] = test system: VCAM-1; assay: VCAM-1 expression in endothelial cells; format: cell-based, human; conditions: HAEC, FACS; TNF-α 100 U/ml for 2 hr as positive control
# Procedure: as §3, §4
# [5] = test system: MAEC; assay: Monocyte adhesion: THP-1 monocytes bound to mouse aortic endothelial cells; format: cell-based; conditions: for effect on BMP4-induced monocyte adhesion: MAE-wt, BMP4 20 ng/ml 18 hrs, YN1 5 μg/ml last 30 min, PEG-catalase 100 U/ml 18 hrs or Tiron 10 μmol/L 1 hr pre-incubation
# Procedure: as §1, §2, §5
# In FIG. 7B, confluent MAE-wt cells were pre-incubated with cell-permeable PEG-catalase (Catalase, 100 U/ml for 18 hrs) or Tiron (10 μmol/L for 1 hr). Cells were then incubated with 20 ng/ml BMP4 or vehicle for additional 18 hrs. The treated cells in 7A and 7B were washed, and fluorescently-labeled THP-1 monocytes were added. Unbound THP-1 cells were washed after 30 min, and bound monocytes were counted with a fluorescence microscope using a 10× objective (5-10 different fields per dish). […] As a positive control, monocyte binding was determined using MAE-wt treated with TNF-α(100 U/ml for 2hrs).
# [6] = test system: MAE-wt cells; assay: O2− assay by electron spin resonance spectroscopy with CMH spin probe; format: cell-based, mouse; conditions: MAE-wt exposed to OS for 1 day, noggin during OS exposure
# Procedure: O2^− Assay: O2^− production was determined by electron spin resonance spectroscopy using methoxycarbonyl-2,2,5,5-tetramethyl-pyrrolidine (CMH) as a spin probe in the presence or absence of PEG-superoxide dismutase (PEG-SOD; 50 U/ml) to quantify the SOD-inhibitable portions of CM.
# In FIG. 10A immediately following treatment of MAE wt cells with BMP4 (200 ng/ml) for 18 hrs, cells were trypsinized and reconstituted in Krebs-Hepes buffer. Equal number of cells was incubated with a spin trap CMH in the presence or absence of PEG-SOD (50 U/mL). The specific O2^− production was calculated by subtracting SOD-inhibitable portions from total O2^− production as determined by following CM production (mean±SEM, n=3, *p<0.05).
# [7] = test system: MAE-wt cells; assay: H2O2 assay by oxidation of DCF-DA; format: cell-based, mouse; conditions: PEG-catalase 100 U/ml for 1 day before and during BMP4 treatment
# Procedure: H2O2 assay: Cells grown in 6-well plates were treated with BMP4 or vehicle control for 18 hrs in the presence or absence of cell-permeable polyethylene glycol (PEG)-catalase (100 U/ml). Cells were then washed once with Hepes buffered saline solution (HBSS) followed by incubation with 7.5 μg/ml 2′, 7′-dichlorofluorescein diacetate (DCF-DA, Molecular Probes) in HBSS for 1 hr at 37 C° in the dark. Cells were washed with HBSS, incubated further for an additional 40 min in HBSS, and the DCF fluorescence intensities were measured in a Cytofluor Multi-Well plate reader (excitation at 475 nm and emission at 525 nm).
# In addition, BMP4 stimulated production of H2O2 by 70% above control as determined by oxidation of DCF-DA (FIG. 10B). […] The cells were washed, incubated with DCF-DA, and the fluorescent intensities determined by fluorometry. Shown is a mean±SEM (n=3, p<0.05). In this assay, a redox cycling menadione (10 μM) was used as positive control (data not shown).
molecule,measurement,setting,value
"CC(=O)N[C@@H](CS)C(=O)O [N-Acetyl-cysteine, reference compound]",BMP4-induced ICAM-1 expression in presence of ROS scavenger,[1],23 % of control
TNF-α [reference compound],effect on surface expression of E-selectin,[2],strongly increased
same,ICAM-1 expression above control cells,"[1]; HAEC, TNF-α 100 U/ml for 2 hr",4 to 5 fold
same,increase in monocyte adhesion above the control,[3],approximately 4 fold
same,effect on surface expression of VCAM-1,[4],strongly increased
"O=S(=O)(O)c1cc(O)c(O)c(S(=O)(=O)O)c1 [Tiron, reference compound]",effect on OS-induced ICAM-1 expression,[1]; noggin 50 ng/ml,completely prevented
same,effect on BMP4-induced monocyte adhesion,[5],completely blocked
"CC(C)C[C@@H](C=O)NC(=O)[C@H](CC(C)C)NC(=O)[C@H](CC(C)C)NC(=O)OCc1ccccc1 [MG132, reference compound] (Cbz-Leu-Leu-Leu-aldehyde)",effect on ICAM-1 expression induced by BMP4,"[1]; HAEC, in the presence of NF-κB translocation inhibitor, inactive peptide or proteosome inhibitor",completely prevented
"noggin (protein, UniProt Q13253 28-232, looked up, natural BMP antagonist) Noggin: QHYLHIRPAPSDNLPLVDLIEHPDPIFDPKEKDLNETLLRSLLGGHYDPGFMATSPPEDRPGGGGGAAGGAEDLAELDQLLRQRPSGAMPSEIKGLEFSEGLAQGKKQRLSKKLRRKLQMWLWSQTFCPVLYAWNDLGSRFWPRYVKVGSCFSKRSCSVPEGMVCKPSKSVHLTVLRWRCQRRGGQRCGWIPIQYPIISECKCSC",effect on OS-induced ICAM-1 expression,[1]; noggin 50 ng/ml,completely inhibited
same,effect on TNF-α-induced ICAM-1 expression,"[1]; HAEC, TNF-α 100 U/ml for 6 hr, noggin 50 ng/ml",did not affect
same,effect on OS-induced O2− increase,[6],virtually blocked
same,effect on OS-induced monocyte adhesion,"[5]; MAEC, OS 24 hr, noggin 50 ng/ml",inhibited OS-induced monocyte adhesion
"PEG-catalase: cell-permeable polyethylene glycol-catalase converting H2O2 to H2O, 100 U/ml (protein, UniProt P00432 2-527, looked up, PEG conjugated, cell-permeable polyethylene glycol-catalase converting H2O2 to H2O, 100 U/ml) Catalase: ADNRDPASDQMKHWKEQRAAQKPDVLTTGGGNPVGDKLNSLTVGPRGPLLVQDVVFTDEMAHFDRERIPERVVHAKGAGAFGYFEVTHDITRYSKAKVFEHIGKRTPIAVRFSTVAGESGSADTVRDPRGFAVKFYTEDGNWDLVGNNTPIFFIRDALLFPSFIHSQKRNPQTHLKDPDMVWDFWSLRPESLHQVSFLFSDRGIPDGHRHMNGYGSHTFKLVNANGEAVYCKFHYKTDQGIKNLSVEDAARLAHEDPDYGLRDLFNAIATGNYPSWTLYIQVMTFSEAEIFPFNPFDLTKVWPHGDYPLIPVGKLVLNRNPVNYFAEVEQLAFDPSNMPPGIEPSPDKMLQGRLFAYPDTHRHRLGPNYLQIPVNCPYRARVANYQRDGPMCMMDNQGGAPNYYPNSFSAPEHQPSALEHRTHFSGDVQRFNSANDDNVTQVRTFYLKVLNEEQRKRLCENIAGHLKDAQLFIQKKAVKNFSDVHPEYGSRIQALLDKYNEEKPKNAVHTYVQHGSHLSAREKANL",effect on OS-induced ICAM-1 expression,[1]; noggin 50 ng/ml,completely prevented
same,BMP4-induced ICAM-1 expression in presence of ROS scavenger,[1],26 % of control
same,effect on BMP-dependent H2O2 production,[7],completely blocked
same,effect on BMP4-induced monocyte adhesion,[5],completely blocked
